Results taken from US20060100140A1, “Combination of a) n-{5-[4-(4-methyl-piperazino-methyl)-benzoylamido]2-methylphenyl}-4- (3-pyridyl)-2-pyrimidine-amine and b) a histone deacetylase inhibitor for the treatment of leukemia” (priority 2002, published 2006).

Key:
Format in all cases: cell-based, human
[1] = test system: HL-60 promyelocytic leukemia cells; test: Apoptosis by Wright Giemsa-stained cytospin slides; conditions: HL-60: SAHA 1.0 μM; Compound I 250 nM; 24 hr
Description: (§1) Experimental Format: Logarithmically growing cells are placed in sterile plastic T-flasks (Corning, Corning, N.Y.) to which are added the designated drugs and the flasks replaced in the incubator for intervals. At the end of the incubation period, cells are transferred to sterile centrifuge tubes, pelleted by centrifugation at 400×g for 10 min at room temperature, and prepared for analysis as described below.
(§2) Assessment of Apoptosis: After drug exposures, cytocentrifuge preparations are stained with Wright-Giemsa and viewed by light microscopy to evaluate the extent of apoptosis (i.e., cell shrinkage, nuclear condensation, formation of apoptotic bodies, etc.) as described previously (Yu et al., Nat. Rev. Cancer 1:294-202). For these studies, the percentage of apoptotic cells is determined by evaluating ≧500 cells/condition in triplicate. To confirm the results of morphological analysis, Annexin V/PI staining is used. Annexin V/PI (BD PharMingen, San Diego, Calif.) analysis of cell death is carried out as per the manufacturer's instructions. In studies involving TNF and TNF soluble receptor, both compound are combined and maintained at room temperature 20 min prior to use. For these experiments 1-2×10^5 cells per condition are harvested. Analysis is carried out using a Becton-Dickinson FACScan cytofluorometer (Mansfield, Mass.). To further confirm the morphology results, TUNEL staining is used. For TUNEL staining, cytocentrifuge preparations are obtained and fixed with 4% formaldehyde. The slides are treated with acetic acid/ethanol (1:2), stained with terminal transferase reaction mixture containing 1× terminal transferase reaction buffer (0.25 units/μl terminal transferase, 2.5 mM CoCl2, and 2 pmol fluorescein-12-dUTM; Boehringer Mannheim, Indianapolis, Ind.), and visualized using fluorescence microscopy.

U937 monocytic leukemia = test: Apoptosis by Wright Giemsa-stained cytospin slides; conditions: U937: SAHA 1.5 μM; Compound I 250 nM; 24 hr
Description: as §1, §2

[2] = test system: NB4 promyelocytic leukemia cells; test: Apoptosis by Wright Giemsa-stained cytospin slides; conditions: NB4: SAHA 1.5 μM; Compound I 250 nM; 24 hr
Description: as §1, §2

[3] = test system: Jurkat lymphoblastic leukemia; test: Apoptosis by Wright Giemsa-stained cytospin slides; conditions: Jurkat: SAHA 0.75 μM; Compound I 250 nM; 24 hr
Description: as §1, §2

[4] = test system: cytochrome c, AIF, and Smac/DIABLO; test: Western analysis of release of cytochrome c, AIF and Smac/DIABLO into S-100 cytosolic fraction; conditions: K562; Compound I (250 nM), SAHA (2.0 μM); 24 hr
phospho-JNK = test: Western analysis of phospho-JNK in K562 cells; conditions: 2.0 μM SAHA ± 250 nM Compound I, 16 hr
Description: (§3) Immunoblot Analysis: Immunoblotting is performed as described previously (Yu et al., Nat. Rev. Cancer 1:294-202). In brief, after drug treatment cells are pelleted by centrifugation, and lysed immediately in Laemmli buffer [1×=30 mM Tris-base (pH 6.8), 2% SDS, […] β-mercaptoethanol, and 10% glycerol], and briefly sonicated. Homogenates are quantified using Coomassie protein assay reagent (Pierce, Rockford, Ill.). Equal amounts of protein (20 μg) are boiled for 10 min, separated by SDS-PAGE (5% stacker and 10% resolving), and electroblotted to nitrocellulose membrane. After blocking in TBS-T (0.05%) and 5% milk for 1 h at 22° C., the blots are incubated in fresh blocking solution with an appropriate dilution of primary antibody for 4 h at 22° C. […]
(§4) K562 cells are treated as above, and monitored for expression of Bcl-xL, Mcl-1, and XIAP. […]

[5] = test system: Compound I-resistant LAMA 84 cells (LAMA 84R); test: Apoptosis by Wright Giemsa-stained cytospin slides in resistant cells; conditions: Table 7, 24 hr, Compound I (1.0 or 1.25 μM), SAHA (1.0 or 2.0)
Description: For studies involving the LAMA 84-R line, cells are washed free of drug and resuspended in drug-free medium 48 h before experimentation.
as §2, with “To further confirm the morphology results, TUNEL staining is used. For TUNEL staining, cytocentrifuge preparations are obtained and fixed with 4% formaldehyde.” left out

K562 cells = test: Loss of mitochondrial membrane potential (DiOC6 flow cytometry); conditions: 2.0 μM SAHA ± 250 nM Compound I
Description: Determination of MMP(ΔΨm): MMP is monitored using DiOC6 [36]. For each condition, 4×10^5 cells are incubated for 15 min at 37° C. in 1 ml of 40 nM DiOC6 (Calbiochem) and subsequently analyzed using a Becton Dickinson FACScan cytofluorometer with excitation and emission settings of 488 and 525 nm, respectively. Control experiments documenting the loss of ΔΨm are performed by exposing cells to 5 μM of […] cyanide m-chlorophenylhydrazone (Sigma Chemical Co.; 15 min, 37° C.), an uncoupling agent that abolishes the MMP.

Raf = test: Western analysis of Raf expression in K562 cells; conditions: 2.0 μM SAHA ± 250 nM Compound I, 16 hr
Description: as §3, §4

Compound	% of apoptotic cells [1]	% of apoptotic cells (U937 monocytic leukemia)	% of apoptotic cells [2]	% of apoptotic cells [3]	release of cytochrome c, AIF, and Smac/DIABLO into the cytosolic S-100 cell fraction [4]	expression of phospho-JNK (JNK activation) (phospho-JNK)	Compound I + SAHA % of apoptotic cells [5]	percentage of cells displaying loss of mitochondrial membrane potential (ΔΨm) (K562 cells; 0 hours)	percentage of cells displaying loss of mitochondrial membrane potential (ΔΨm) (K562 cells; 6 hours)	percentage of cells displaying loss of mitochondrial membrane potential (ΔΨm) (K562 cells; 12 hours)	percentage of cells displaying loss of mitochondrial membrane potential (ΔΨm) (K562 cells; 18 hours)	percentage of cells displaying loss of mitochondrial membrane potential (ΔΨm) (K562 cells; 24 hours)	percentage of cells displaying loss of mitochondrial membrane potential (ΔΨm) (K562 cells; 48 hours)	expression of Raf (Raf)
O=C(CCCCCCC(=O)Nc1ccccc1)NO [SAHA, suberoylanilide hydroxamic acid]	6.4 ± 1.9%	5.4 ± 1.9%	5.6 ± 2.3%	6.3 ± 3.2%	minimal	fail to modify	10.3 ± 3.4%	5.4 ± 1.6%	8.1 ± 1.9%	10.4 ± 2.1%	12.3 ± 2.8%	16.4 ± 2.9%	20.5 ± 2.8%	clear reduction
Cc1ccc(NC(=O)c2ccc(CN3CCN(C)CC3)cc2)cc1Nc1nccc(-c2cccnc2)n1 [Compound I, N-{5-[4-(4-methyl-piperazino-methyl)-benzoylamido]-2-methylphenyl}-4-(3-pyridyl)-2-pyrimidine-amine]	3.1 ± 1.3%	0.9 ± 08%	1.8 ± 1.3%	1.1 ± 0.6%	minimal	fail to modify	14.8 ± 4.7%	5.7 ± 1.8%	8.8 ± 1.9%	–	–	17.8 ± 3.4%	41.3 ± 4.3%	little effect
